In article PMC7064328 (Environmental Health Perspectives, 2020):

Tested on: placenta
Assay: Placental thyroid hormone quantification (HPLC-MS/MS)
Assay type: in vivo, mouse (CD-1)
Details: E17.5
Protocol: Thyroid hormones (T3, triiodothyronine; T4, thyroxine; rT3, reverse triiodothyronine) in placenta were analyzed according to the methods described in Leonetti et al. ([2016]). Briefly, ∼300mg ( 207–526mg ) of two to three pooled placental tissues of same-sex embryos was homogenized and digested for 16 h overnight in PRONASE® Protease (Streptomyces griseus) solution (EMD Millipore Corp.). Each pooled sample of two to three placentas was considered as one biological replicate and included placentas from the same litter when possible. Three biological replicates were used for each treatment group and each sex. Samples were spiked with an antioxidant solution (containing 37.5mg/mL each of citric acid, ascorbic acid, and dithiothreitol) and C13 isotopically labeled internal standards (T4, T3, and rT3), and cold acetone was added to stop the digestion reaction. Samples were vortex mixed and centrifuged three times for 2 min at 10,000 relative centrifugal force (rcf), and the supernatants were collected and combined. Sample pH was adjusted with 6M hydrochloric acid to pH<2 . A liquid–liquid extraction with cyclopentane was performed and the cyclopentane layer discarded; briefly, 1mL of cyclopentane was added to the supernatant and vortexed before the sample was centrifuged for 3 min at 3,000 rcf and the cyclopentane layer discarded, and this was repeated three times. A liquid–liquid extraction with ethyl acetate was performed; briefly, 3mL of ethyl acetate was added to the extract and vortexed before being shaken on a plate shaker for 30 min and centrifuged for 3 min at 3,000 rcf, and the ethyl acetate layer collected; this was repeated three times. Ethyl acetate extracts were dried down to 50μL under a gentle nitrogen stream and resuspended in 1mL of 0.01M hydrochloric acid in 10% methanol. Samples were purified by solid-phase extraction using SampliQ Optimized Polymer Technology (OPT) cartridges ( 3mL , 50mg; Agilent Technologies). Final extracts in 400μL of 1:1 methanol:water were filtered using Whatman® Mini-UniPrep® Syringeless Filters [Polytetrafluoroethylene (PTFE), 0.2μm; GE Healthcare]. Extracts were analyzed on an Agilent high-performance liquid chromatography (HPLC) 1260 with a Synergi™ 50mm×2mm Polar-RP column ( 2.5μm; Phenomenex) coupled to an Agilent model 6460 tandem mass spectrometer with electrospray ionization (HPLC-MS/MS-ESI). Mobile phases consisted of 10 mM formic acid in methanol and 10 mM formic acid in water. Laboratory processing blanks were extracted alongside the placental tissues to monitor background levels. No TH were detected in the lab blanks. Method detection limits (MDLs) were calculated using a signal-to-noise value of 3 for each analyte (T3, T4, and rT3). Values were normalized to the wet weight of placenta extracted for a final value of nanogram hormone/gram placenta. Values below the MDL (T4, 0.84 ng/g; T3, 0.42 ng/g; rT3, 0.67 ng/g ) were imputed using the calculation MDL×0.5 , and values lacking a quantifiable peak on mass spectrometry were excluded from the analysis.
TH concentrations in the placenta were quantified, and the ratios of T3:T4 and rT3:T4 in E17.5 placentas were assessed to evaluate potential disruption of peripheral TH control (e.g., impacts on thyroid deiodinase activity). Each end point was analyzed for sex×treatment interaction or for an overall effect of sex. Placenta TH were analyzed by analysis of variance using lme4 ([Bates et al. 2014]). Simultaneous tests for general linear hypotheses were corrected for multiple comparisons of means using Tukey contrasts in the package multcomp ([Hothorn et al. 2009]). Placental TH and their ratios were initially analyzed with embryo sex as an interaction term in the model, with the dose group as the predictor variable. Inclusion of a sex interaction or sex covariate in the final model was examined in a stepwise fashion. Internal dosimetry data were analyzed by analysis of variance. […]

## N.O=C(O)C(F)(OC(F)(F)C(F)(F)C(F)(F)F)C(F)(F)F (centres unmarked) [GenX, ammonium 2,3,3,3-tetrafluoro-2-(heptafluoropropoxy)propanoate]
2 mg/kg/d
  Placental T3: 0.3±0.2 [5 (0, 5)] ng/g
  Placental T4: 5.3±1.7 [6 (6, 0)] ng/g
  Placental rT3: 1.7±0.8 [6 (6, 0)] ng/g
10 mg/kg/d
  Placental T3: 0.2±0 [6 (0, 6)] ng/g
  Placental T4: 6.1±1.1 [6 (6, 0)] ng/g
  Placental rT3: 1.6±0.3 [6 (6, 0)] ng/g
female, 2 mg/kg/d
  Placental T3: 0.3 ± 0.2 ng/g
  Placental T4: 5.9 ± 2.3 ng/g
  Placental rT3: 2.3 ± 0.6 ng/g
female, 10 mg/kg/d
  Placental T3: 0.2 ± 0 ng/g
  Placental T4: 6.5 ± 1.4 ng/g
  Placental rT3: 1.9 ± 0.1 ng/g
male, 2 mg/kg/d
  Placental T3: 0.2 ± 0 ng/g
  Placental T4: 4.7 ± 1.1 ng/g
  Placental rT3: 1.0 ± 0.2 ng/g
male, 10 mg/kg/d
  Placental T3: 0.2 ± 0 ng/g
  Placental T4: 5.8 ± 0.7 ng/g
  Placental rT3: 1.3 ± 0.3 ng/g

## O=C(O)C(F)(F)C(F)(F)C(F)(F)C(F)(F)C(F)(F)C(F)(F)C(F)(F)F [PFOA, Perfluorooctanoic acid]
1 mg/kg/d
  Placental T3: 0.2±0 [6 (0, 6)] ng/g
  Placental T3:T4 ratio: 0.09±0.03 [6]
  Placental T4: 2.5±1.0 [6 (6, 0)] ng/g
  Placental rT3: 0.7±0.4 [6 (3, 3)] ng/g
  Placental rT3:T4 ratio: 0.30±0.21 [6]
5 mg/kg/d
  Placental T3: 0.2±0 [4 (0, 4)] ng/g
  Placental T3:T4 ratio: 0.07±0.02 [4]
  Placental T4: 2.8±1.3 [6 (6, 0)] ng/g
  Placental rT3: 1.4±0.7 [5 (5, 0)] ng/g
  Placental rT3:T4 ratio: 0.45±0.05 [5]
female, 1 mg/kg/d
  Placental T3: 0.2 ± 0 ng/g
  Placental T3:T4 ratio: 0.104 ± 0.02
  Placental T4: 2.0 ± 0.4 ng/g
  Placental rT3:T4 ratio: 0.401 ± 0.22
female, 5 mg/kg/d
  Placental T3: 0.2 ± 0 ng/g
  Placental T3:T4 ratio: 0.065 ± 0.02
  Placental rT3: 1.6 ± 1.0 ng/g
  Placental rT3:T4 ratio: 0.441 ± 0.05
male, 1 mg/kg/d
  Placental T3: 0.2 ± 0 ng/g
  Placental T3:T4 ratio: 0.071 ± 0.02
  Placental rT3: 0.5 ± 0.4 ng/g
  Placental rT3:T4 ratio: 0.196 ± 0.17
male, 5 mg/kg/d
  Placental T3: 0.2 ng/g
  Placental T3:T4 ratio: 0.083
  Placental rT3: 1.2 ± 0.1 ng/g
  Placental rT3:T4 ratio: 0.454 ± 0.07
